{"source": "patent US20040019053A1", "about": "“Combination of an allosteric carboxylic inhibitor of matrix metalloproteinase-13 with celecoxib or valdecoxib” (priority 2002, published 2004)", "origin": "cited, not measured here", "data": [{"smiles": "Cc1onc(-c2ccccc2)c1-c1ccc(S(N)(=O)=O)cc1", "note": "[valdecoxib, 4-(5-methyl-3-phenyl-4-isoxazolyl)-benzenesulfonamide]", "values": [{"measurement": "Tolerability", "setting": "combined analysis of clinical studies", "value": "well tolerated"}, {"measurement": "Overall upper gastrointestinal safety profile (ulcers, perforations, obstructions and GI bleeds)", "setting": "versus ibuprofen, diclofenac and naproxen", "value": "significantly better than the conventional NSAIDs studied"}]}]}
